Data reported in US4918173A, “2',6'-Dideoxy derivatives of anthracycline glycosides” (Laboratories Hoechst S.A., priority 1985, dated 1990).
Converted amounts (≈) assume the structure as drawn. Like-named read-outs stand apart in the source and are kept apart here.

Experiments:
L 1210 leukemia cells = experiment: Effect on L 1210 leukemia cells: colony formation in agarose, method of Hamburger and Salmon modified; assay type: cell-based; details: Mus musculus
Experimental: The cells are incubated for 1 hour at 37° C. in the presence of various concentrations of the tested substance. The cells are then washed twice with Mc Coy 5 A and placed on agarose plates according to the method of Hamburger and Salmon. Furthermore, the test is carried out in parallel with continuous incubation with various concentrations of the substance under study by introducing the substance into the agarose layer before the cells are left to incubate. The dishes are placed in the oven at 37° C. under an atmosphere of 5% CO2 and 20% O2, and a relative humidity of 95% for 5 to 7 days. After this time the colonies with a diameter greater than 60 mcm are counted with the aid of a reversed microscope. […] Two experiments are carried out, one with 1 hour's exposure, the other with continuous exposure.

[1] = versus the parent compounds; F. Arcamone et al. 1976; cited from earlier work
[2] = L1210, L 1210 leukemia cells, 1 h exposure at 37° C., read-out: IC 50, 1 h exposure
[3] = L1210, L 1210 leukemia cells, continuous exposure (substance in agarose layer), 5 to 7 days, read-out: IC 50, Continuous exposure

Row | Compound | IC50 (L 1210 leukemia cells; [2]) | IC50 (L 1210 leukemia cells; [3]) | further results
1 | COc1cccc2c1C(=O)c1c(O)c3c(c(O)c1C2=O)C[C@@](O)(C(=O)CO)C[C@@H]3O[C@H]1C[C@H](N)[C@H](O)[C@H](C)O1 [DOXORUBICIN, reference compound] |  |  | IC50 (L 1210 leukemia cells; L1210, 1 h, read-out: IC 50, 1 h exposure): 0.02 µg/mL (≈ 0.0368 µM); IC50 (L 1210 leukemia cells; L1210, read-out: IC 50, Continuous exposure): 0.04 µg/mL (≈ 0.0736 µM)
2 | CC(=O)[C@]1(O)Cc2c(O)c3c(c(O)c2[C@@H](O[C@H]2C[C@H](N)[C@H](O)[C@H](C)O2)C1)C(=O)c1ccccc1C3=O [4-demethoxydaunorubicin] |  |  | activity relative to the parent compounds [1]: more active; toxicity relative to the parent compounds [1]: less toxic
3 | CC(=O)O[C@H]1[C@H](C)O[C@@H](O[C@H]2C[C@]3(COC(C)(C)O3)Cc3c(O)c4c(c(O)c32)C(=O)c2ccccc2C4=O)C[C@@H]1OC(C)=O [XXIII, 1-O-(3',4'-Di-O-acetyl-2',6'-dideoxy-α-L-arabinohexopyranosyl)-1,2,3,4,6,11-hexahydro-1S,3S,5,12-tetrahydroxy-3-hydroxymethyl-3,13-O-isopropylidenenaphthacene-6,11-dione] | 2.8 µg/mL (≈ 4.59 µM) | > 10 µg/mL | 
4 | COc1cccc2c1C(=O)c1c(O)c3c(c(O)c1C2=O)C[C@@](O)(C(=O)CO)C[C@@H]3O[C@H]1C[C@H](N)[C@H](O)[C@H](C)O1 [adriamycin] |  |  | activity relative to the parent compounds [1]: more active; toxicity relative to the parent compounds [1]: less toxic

Further lines, with some results ahead:

Row | IC50 (L 1210 leukemia cells; [2]) | IC50 (L 1210 leukemia cells; [3]) | Compound | further results
5 | 0.021 µg/mL (≈ 0.0368 µM) | 3.6 µg/mL (≈ 6.31 µM) | CC(=O)O[C@H]1[C@H](C)O[C@@H](O[C@H]2C[C@](O)(CO)Cc3c(O)c4c(c(O)c32)C(=O)c2ccccc2C4=O)C[C@@H]1OC(C)=O [XXIV, 1-O-(3',4'-Di-O-acetyl-2',6'-dideoxy-α-L-arabinohexopyranosyl)-1,2,3,4,6,11-hexahydro-1S,3S,5,12-tetrahydroxy-3-hydroxymethylnaphthacene-6,11-dione] | 
6 | 0.025 µg/mL (≈ 0.0514 µM) | 0.063 µg/mL (≈ 0.13 µM) | C[C@@H]1O[C@@H](O[C@H]2C[C@](O)(CO)Cc3c(O)c4c(c(O)c32)C(=O)c2ccccc2C4=O)C[C@H](O)[C@H]1O [XXV, 1-O-(2',6'-dideoxy-α-L-arabinohexopyranosyl)-1,2,3,4,6,11-hexahydro-1S,3S,5,12-tetrahydroxy-3-hydroxymethylnaphthacene-6,11-dione] | 
7 | > 1 µg/mL | > 1 µg/mL | C[C@@H]1O[C@@H](O[C@H]2C[C@]3(COC(C)(C)O3)Cc3c(O)c4c(c(O)c32)C(=O)c2ccccc2C4=O)C[C@H](O)[C@H]1O | 
